In brackets after ≈: the same amount, converted by molar mass.

For orientation: IC50 means the concentration needed to halve the response being measured.

The assay has as its system DLBCL SUDHL4 cells. The assay can be described thus: CellTiter-Glo 3D cell viability (intracellular ATP) after 48 h drug treatment, 2D suspension vs 3D microcompartments. Type of assay: cell-based. The conditions noted are these: Homo sapiens, SU-DHL-4, 48 h. As to the method:
FIG. 11: Comparison of the cytotoxic effects of doxorubicin and of etoposide on DLBCL SUDHL4 cells grown in 2D (suspension) or in 3D ± ECM ± Resto. Cells or spheroids at D7 post-encapsulation are treated for 48 h with drugs. At the end of the treatment, cell viability is measured using the CellTiter-Glo® 3D Cell Viability Assay Kit (Promega).
As shown above, drug diffusion is altered in the 3D structures according to the invention. The purpose of the present experiment is to verify whether this alteration is correlated with chemoresistance. For this purpose, the efficacy of two conventional chemotherapies (doxorubicin and etoposide) was tested in parallel on cells grown in suspension (2D) and on cell clusters from cellular microcompartments according to the invention, containing lymphomatous cells alone or in the presence of ECM, with or without Resto stromal cells, treated with increasing concentrations of these chemotherapy molecules.
After 48 h of incubation, cell survival was assessed by measuring intracellular ATP using the CellTiter-Glo® 3D Cell Viability Assay Kit (Promega).

Setting [1] is: 3D (lymphomatous cells alone), SUDHL4, D7 post-encapsulation, 48 h.
Where [2] appears, read: 3D + ECM + Resto, SUDHL4, D7 post-encapsulation, 48 h.
Setting [3] is: 3D + ECM, SUDHL4, D7 post-encapsulation, 48 h.

`COc1cccc2c1C(=O)c1c(O)c3c(c(O)c1C2=O)C[C@@](O)(C(=O)CO)C[C@@H]3O[C@H]1C[C@H](N)[C@H](O)[C@H](C)O1` [Doxorubicin, doxorubicin]: the half-maximal inhibitory concentration (IC50) is, setting by setting: (2D (suspension), SUDHL4, 48 h) 0.09 µg/mL (≈ 0.166 µM); under setting [1], 0.4 µg/mL (≈ 0.736 µM); under setting [2], 0.4 µg/mL; under setting [3], 0.4 µg/mL.

As to `COc1cc([C@@H]2c3cc4c(cc3[C@@H](O[C@@H]3O[C@@H]5CO[C@@H](C)O[C@H]5[C@H](O)[C@H]3O)[C@H]3COC(=O)[C@H]23)OCO4)cc(OC)c1O` [Etoposide, etoposide], the IC50 was found to be 3.2 µg/mL (≈ 5.44 µM) (2D (suspension), SUDHL4, 48 h); 4.4 µg/mL (≈ 7.48 µM) under setting [1]; 7 µg/mL under setting [2]; 9.3 µg/mL under setting [3].

Values taken from patent US20200370022A1, “MALIGNANT HEMATOPOIETIC CELL MICROCOMPARTMENT AND METHOD FOR PREPARING SUCH A MICROCOMPARTMENT” (UNIVERSITE DE BORDEAUX, priority 2017, published 2020).
